Laboratory results reported in patent US20110003753A1, “COMPOSITIONS AND METHODS FOR DISRUPTING THE FUNCTION OF THE TRANSCRIPTIONAL REPRESSOR COMPONENT Sin3A-PAH2 DOMAIN TO INDUCE DIFFERENTIATION AND GROWTH INHIBITION IN BREAST CANCER” (SAMUEL WAXMAN CANCER RESEARCH FOUNDATION, priority 2009, published 2011).

Key:
MDA-MB-231 = experiment: Phenotypic (morphology) changes in culture; format: cell-based, human; settings: cells in culture
From the text: FIG. 1: Expression of a decoy peptide corresponding to MAD Sin3 interaction domain (SID) induces markers of differentiation and contact inhibition in MDA-MB-231 breast cancer cells. A. Schematic of the SID peptides and expression constructs used in this study. Shown in the upper panel are the design and sequence of the Tat-SID peptide and Tat-SID^SCR scrambled control. The Tat-SID peptide corresponds to amino acids 5-24 of MAD. This sequence binds Sin3 PAH2 with high affinity and has been previously used to study SID-PAH2 interactions in vitro. Peptides contain a leader sequence (YGRKKRRQGGG, SEQ ID No. 5) corresponding to the human immunodeficiency virus type 1 Tat arginine-rich RNA-binding motif (ARM), which has been mutated (RRR>GGG) to improve nuclear entry. B. Morphological changes induced by SID in MDA-MB-231 and MMTV-Myc. […] D. Confocal IF analyses showing the re-expression of membrane-associated E-cadherin induced by the expression of SID in MDA-MB-231 cells (top row) and MMTV-Myc cells (bottom row) E. Re-expression of nuclear RARβ in MDA-MB-231 cells detected by immunofluorescence microscopy. […]

[1] = biological target: T1, PAH2 domain of Sin3A and MAD (Mus musculus, UniProt Q60520); experiment: GST pull-down of MAD by the Sin3A PAH2 domain; format: binding
T1 construct: amino acids 306-450 of mSin3A; made in house; host or cells: E. coli (GST-PAH2); MAD from rabbit reticulocyte in vitro translation or immunoprecipitated from MDA-MB-231 lysate
T1 sequence (Q60520 306-450): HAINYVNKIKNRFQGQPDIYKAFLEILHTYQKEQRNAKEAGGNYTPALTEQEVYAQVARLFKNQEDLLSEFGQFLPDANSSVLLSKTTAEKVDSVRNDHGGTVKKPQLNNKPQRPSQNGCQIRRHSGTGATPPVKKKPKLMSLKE
From the text: FIG. 2: SID decoy peptide blocks interactions between Sin3 PAH2 and MAD and interferes with recruitment of members of the Sin3 co-repressor complex. A. GST pull-down of MAD by the Sin3A PAH2 domain is blocked by SID peptide. Sin3A PAH2 domain (amino acids 306-450) was expressed in E. coli as a GST fusion and used in a pull down assay for in vitro interaction with 35S-methionine labeled MAD (left panel) or MAD immunoprecipitated from MDA-MB-231 cell lysates (right panel). 25% of input is shown for in vitro translated MAD and 10% of input for immunoprecipitated MAD (input). Assays were performed using 15 μM Tat-SID or Tat-SID^SCR peptide unless otherwise indicated. […]
GST pull-down assays were performed using the ProFound™ pull-down GST protein:protein interaction kit (Pierce) according to the manufacturer's instructions. […] Gels containing samples from MDA-MB-231 cell lysates were analyzed by Western immunoblot according to standard protocols. Pulled-down MAD was detected using mouse monoclonal anti-MAD (F-1) antibody (Santa Cruz), anti-mouse secondary antibody (Jackson ImmunoResearch), and enhanced chemiluminescence (ECL, Peirce).

ERα and RARβ = experiment: Re-expression of silenced genes in MDA-MB-231 cells; format: cell-based, human
From the text: This finding coincides with the increased expression of E-cadherin and CRBP1, known RAR target genes and the induction of p27, highly sensitive to RAR activation. […] Thus, blocking specific sites of a component of a transcriptional repressor limited to few transcription factors can be used to induce a differentiation phenotype and anti-tumor effect in breast cancer and that these events may, impart new and/or restore therapeutic targets in breast cancer.

YGRKKRRQGGGVRMNIQMLLEAADYLERRER [SID peptide]
phenotypic change of cell morphology (MDA-MB-231): cobblestone monolayers and well defined cell-cell contact accompanied by cell growth contact inhibition | blocking of interaction between PAH2 domain of Sin3A and in vitro translated MAD ([1]; 35S-methionine labeled MAD, 15 μM peptide unless otherwise indicated): blocked interactions | blocking of interaction between PAH2 domain of Sin3A and MAD immunoprecipitated from MDA-MB-231 cells ([1]; MAD immunoprecipitated from MDA-MB-231 cell lysates, 15 μM peptide): blocked interactions | re-expression of ERα and RARβ (ERα and RARβ): induced the re-expression of ERα and RARβ
